Measured values published in patent US4703036A, “Peptide-aldehydes, process for the preparation thereof and pharmaceutical compositions containing the same” (Richter Gedeon Vegyeszeti Gyar RT, priority 1984, dated 1987).
Non-standard residues stand in square brackets, D forms with d. Residues, ends and D or L forms follow the SMILES beside them. dNMeaIle = CC[C@H](C)[C@@H](NC)C(=O)O

Key:
[1] = target: T1, US Standard Human Thrombin (Homo sapiens, UniProt P00734); assay: Antithrombin activity: clotting time in the thrombin-fibrinogen system; type: biochemical; details: for Initial activity I80 (zero day): peptide concentration in the reaction mixture inducing a fivefold prolongation of clotting time compared to the control (15 s)
T1 construct: US Standard Human Thrombin; purchased NIH, Bethesda, Md., USA
Procedure: Antithrombin activities were assayed in a system containing the following components:
(§1) 0.2 ml 0.5 percent bovine fibrinogen in a 0.9 percent solution of sodium chloride,
0.1 ml tris(hydroxymethyl)-amino-methane-hydrochloride-hydrochloric acid buffer (pH=7.2) containing the peptide solution, and
0.1 ml US Standard Human Thrombin (NIH, Bethesda, Md., USA), 10 unit/ml solution.
The clotting time of the peptide-free system is 15 s, measured in the "Schnither-Gross-Coagulometer". The initial activity of the tripeptide-aldehyde sulfates was arbitrarily set up as the mole concentration inducing the fivefold prolongation of clotting time in the system compared to the control (I80 value). The activity of the peptides in the solutions, assayed on the 1st, 3rd and 5th day, was expressed as a percentage of the initial activity (zero day).

[2] = target: T1, US Standard Human Thrombin; assay: Change in the antithrombin activity of aqueous solutions of tripeptide-aldehyde sulfates on storage; type: physicochemical; details: aqueous solution 10 mg/ml; for loss of initial antithrombin activity during the observation period: pH 6.0, 40° C., 5 days; for Activity (%) Day 1 / Activity (%) Day 2 / Activity (%) Day 3: percentage of initial activity, pH = 6.0, stored at 40° C.
Procedure: The transformations proceeding in the solutions were monitored by chromatography and by measuring antithrombin activity. Antithrombin activities were assayed in a system containing the following components: […] 0.1 ml US Standard Human Thrombin (NIH, Bethesda, Md., USA), 10 unit/ml solution. The clotting time of the peptide-free system is 15 s, measured in the "[…]-Gross-Coagulometer". The initial activity of the tripeptide-aldehyde sulfates was arbitrarily set up as the mole concentration inducing the fivefold prolongation of clotting time in the system compared to the control ([…] value).

[3] = Conversion to the tricyclic compound in aqueous solution, monitored by chromatography; type: physicochemical; details: for irreversible conversion to the tricyclic compound: aqueous solution 10 mg/ml, pH=6.0, 40° C., 5 days, thin-layer chromatography
Procedure: The structure of this compound [1,2,4,5,6,6a-hexahydro-1-benzyl-2-oxo-8-(4'-guanidino)-butyl-pyrrolo[1,2- a]imidazolo[2,1-c]pyrazine] was confirmed by mass spectrometry and NMR spectroscopy. […] 817], they are less suitable for anticoagulant therapy.
During stability testing aqueous solutions of D-phenylalanyl-L-prolyl-L-arginine-aldehyde sulfate as well as of the corresponding N-alkyl derivatives with a concentration of 10 mg/ml (pH=6.0) were stored at 40° C. for 5 days. The transformations proceeding in the solutions were monitored by chromatography and by measuring antithrombin activity.

plasmin [4] = target: T2, plasmin (Homo sapiens, UniProt P00747); assay: Effect on the plasmin-fibrin reaction: lysis time of fibrin clot; type: biochemical; set-up: key: **: No measurable lysis time due to clot of rather loose structure; details: peptide-free system 10 minutes
T2 construct: 0.1 U plasmin dissolved in buffer solution (KABI, Stockholm, Sweden); purchased KABI, Stockholm, Sweden
T2 sequence (P00747 581-810 limits assumed): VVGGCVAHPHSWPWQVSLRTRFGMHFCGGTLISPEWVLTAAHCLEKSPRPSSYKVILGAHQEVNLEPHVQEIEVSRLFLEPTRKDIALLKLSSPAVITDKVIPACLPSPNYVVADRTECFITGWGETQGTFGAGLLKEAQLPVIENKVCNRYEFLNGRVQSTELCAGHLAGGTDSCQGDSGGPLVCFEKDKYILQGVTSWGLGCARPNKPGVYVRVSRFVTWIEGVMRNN
T2 sequence (P00747 97-580 partner limits assumed): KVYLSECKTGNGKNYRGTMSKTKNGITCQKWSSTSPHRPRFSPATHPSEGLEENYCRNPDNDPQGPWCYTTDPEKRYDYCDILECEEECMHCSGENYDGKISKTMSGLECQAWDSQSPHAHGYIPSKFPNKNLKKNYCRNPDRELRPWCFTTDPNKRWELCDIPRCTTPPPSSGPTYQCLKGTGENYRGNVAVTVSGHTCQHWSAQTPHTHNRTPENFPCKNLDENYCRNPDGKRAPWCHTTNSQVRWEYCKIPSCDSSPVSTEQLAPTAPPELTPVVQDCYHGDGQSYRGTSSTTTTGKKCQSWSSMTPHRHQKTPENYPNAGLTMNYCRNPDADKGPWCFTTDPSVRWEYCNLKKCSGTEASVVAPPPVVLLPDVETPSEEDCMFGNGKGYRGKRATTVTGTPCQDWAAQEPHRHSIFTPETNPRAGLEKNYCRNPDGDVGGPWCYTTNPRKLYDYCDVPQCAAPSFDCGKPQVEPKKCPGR
Procedure: as §1
0.1 ml tris(hydroxymethyl)-amino-methane hydrochloride-hydrochloric acid buffer (pH=7.2), containing the peptide,
0.1 ml 0.1 U plasmin dissolved in buffer solution (KABI, Stockholm, Sweden), and
0.1 ml US Standard Human Thrombin (NIH, Bethesda, Md., USA) 10 U/ml solution.
The lysis time of the fibrin gel formed in the peptide-free system is 10 minutes. D-Phenylalanyl-L-prolyl-L-arginine-aldehyde sulfate and the above-mentioned t-butyloxycarbonyl-D-phenylalanyl-L-prolyl-L-arginine-aldehyde hemisulfate were used as reference substances.

male New Zealand rabbits = assay: In vivo anticoagulant effect: whole blood clotting time and plasma thrombin time; set-up: species or system rabbit; details: lowest dose required to attain therapeutic effect; for Lowest effective dose iv: intravenous infusion for 3 hours; for Lowest effective dose po: oral administration
Procedure: The peptides, dissolved in isotonic saline solution, were administered orally or intravenously to male New Zealand rabbits weighing 2 to 3 kg. At intravenous application infusions of 0.5 to 2.0 mg/kg/h were given at a rate of 6 ml/h for 3 hours. At oral administration 20 to 30 mg/kg doses of the peptides were given in volumes of 2 ml. After application blood samples were taken in 30 minute periods from the ear vein of the rabbits and the clotting time of whole blood was assayed in a Thromboelastograph [H. Harter: Zeitschrift fur klinische Medizin 153, 423 (1955)], simultaneously the plasma thrombin time was measured, too [R. T. S. Jim: J. Lab. Clin. Med. 50, 45 (1957)]. The lowest doses required to attain therapeutic effect (M. Verstraete and R. Verwilghen in Drug Treatment, 2nd ed., Ed.: G. S. Avery, Churchill Livingstone, Edinburgh-London, 1980, p. 919) were presented in Table 3, D-phenylalanyl-L-prolyl-L-arginine-aldehyde sulfate served as reference substance.

[5] = target: T1, US Standard Human Thrombin; details: cool solution (5° C.), prolonged period; Belgian patent specification No. 891,708; cited from earlier work
[6] = Conversion to the tricyclic compound in aqueous solution, monitored by chromatography; type: physicochemical
[7] = target: T1, US Standard Human Thrombin; details: literature statement; cited from earlier work
plasmin [8] = target: T2, plasmin; details: literature statement; cited from earlier work

Compound | Initial activity I80 (zero day) [1] [µM] | loss of initial antithrombin activity during the observation period [2] | Activity (%) Day 1 [2] [%] | Activity (%) Day 2 [2] [%] | Activity (%) Day 3 [2] [%] | Lysis time of fibrin clot (plasmin [4]; peptide content 0.18 μM) [min] | Lysis time of fibrin clot (plasmin [4]; peptide content 0.36 μM) | Lysis time of fibrin clot (plasmin [4]; peptide content 0.72 μM) | irreversible conversion to the tricyclic compound ([3]; sulfate) | Lowest effective dose iv (male New Zealand rabbits) [mg/kg/h] | Lowest effective dose po (male New Zealand rabbits) [mg/kg] | also measured
1,2,4,5,6,6a-hexahydro-1-benzyl-2-oxo-8-(4'-guanidino)-butyl-pyrrolo[1,2- a]imidazolo[2,1-c]pyrazine [tricyclic compound] | – | – | – | – | – | – | – | – | – | – | – | enzyme inhibitory activity ([1]; conversion product, method not described): devoid of enzyme inhibitory activity
CC(=O)O.N=C(N)NCCC[C@@H](C=O)NC(=O)[C@@H]1CCCN1C(=O)[C@H](N)Cc1ccccc1 [D-phenylalanyl-L-prolyl-L-arginine-aldehyde acetate, reference compound] | – | – | – | – | – | – | – | – | – | – | – | transformation into the corresponding tricyclic compound ([3]; conditions not stated): especially highly susceptible
CN(C)[C@H](Cc1ccccc1)C(=O)N1CCC[C@H]1C(=O)N[C@H](C=O)CCCNC(=N)N.O=S(=O)(O)O [N,N-Dimethyl-D-phenylalanyl-L-prolyl-L-arginine-aldehyde sulfate] | – | – | – | – | – | – | – | – | – | – | 30 | irreversible conversion to the tricyclic compound [3]: no such conversion was detectable
CC(C)CN[C@H](Cc1ccccc1)C(=O)N1CCC[C@H]1C(=O)N[C@H](C=O)CCCNC(=N)N.O=S(=O)(O)O [N-Isobutyl-D-phenylalanyl-L-prolyl-L-arginine-aldehyde sulfate] | 0.31 | 15 to 20% | 100 | 85 | 80 | – | – | – | fail to be irreversibly converted | – | 20 | irreversible conversion to the tricyclic compound ([3]; listed as N-isobutyl derivative, sulfate): no such conversion was detectable
CC[C@H](C)[C@@H](NC)C(=O)N1CCC[C@H]1C(=O)N[C@H](C=O)CCCNC(=N)N.O=S(=O)(O)O [N-Methyl-D-alloisoleucyl-L-prolyl-L-arginine-aldehyde sulfate] (H-[dNMeaIle]-Pro-Arg-aldehyde) | – | – | – | – | – | – | – | – | – | 1.0 | 30 | –
t-butyloxycarbonyl-D-phenylalanyl-L-prolyl-L-arginine-aldehyde hemisulfate | – | – | – | – | – | 10 | 20 min | 40 min | – | – | – | inhibition of the thrombin-fibrinogen reaction [7]: inhibit; effect on the plasmin-fibrin reaction (plasmin [8]): inhibit

The next lines start with results.

Initial activity I80 (zero day) [1] [µM] | loss of initial antithrombin activity during the observation period [2] | Activity (%) Day 1 [2] [%] | Activity (%) Day 2 [2] [%] | Activity (%) Day 3 [2] [%] | Lysis time of fibrin clot (plasmin [4]; peptide content 0.18 μM) [min] | Lysis time of fibrin clot (plasmin [4]; peptide content 0.36 μM) | Lysis time of fibrin clot (plasmin [4]; peptide content 0.72 μM) | irreversible conversion to the tricyclic compound ([3]; sulfate) | Compound | Lowest effective dose iv (male New Zealand rabbits) [mg/kg/h] | Lowest effective dose po (male New Zealand rabbits) [mg/kg] | also measured
0.25 | more than 50% | 100 | 50 | 40 | 10 | ** | no clot formed | – | N=C(N)NCCC[C@@H](C=O)NC(=O)[C@@H]1CCCN1C(=O)[C@H](N)Cc1ccccc1.O=S(=O)(O)O [D-Phenylalanyl-L-prolyl-L-arginine-aldehyde sulfate, reference compound] | 0.5 | 20 | irreversible conversion to the tricyclic compound [3]: gradually reduced; stability: retention of initial activity in cool solution [5]: retaining its initial activity; time to practically complete transformation into the tricyclic compound at 37° to 40° C. ([6]; 37° to 40° C.): 10 to 14 days; transformation into the tricyclic compound at 80° to 100° C. ([6]; 80° to 100° C.): within hours
0.21 | 15 to 20% | 100 | 100 | 85 | – | – | – | fail to be irreversibly converted | CCN[C@H](Cc1ccccc1)C(=O)N1CCC[C@H]1C(=O)N[C@H](C=O)CCCNC(=N)N.O=S(=O)(O)O [N-Ethyl-D-phenylalanyl-L-prolyl-L-arginine-aldehyde sulfate] | 0.5 | 20 | irreversible conversion to the tricyclic compound ([3]; listed as N-ethyl derivative, sulfate): no such conversion was detectable
0.25 | – | 100 | 100 | 100 | – | – | – | – | CN[C@H](Cc1ccccc1)C(=O)N1CCC[C@H]1C(=O)N[C@@H](C=O)CCCNC(=N)N.O=S(=O)(O)O [N-Methyl-D-phenylalanyl-L-prolyl-D-arginine-aldehyde sulfate] | – | – | –
– | retained its initial potency | – | – | – | 10 | ** | no clot formed | fail to be irreversibly converted | CN[C@H](Cc1ccccc1)C(=O)N1CCC[C@H]1C(=O)N[C@H](C=O)CCCNC(=N)N.O=S(=O)(O)O [N-Methyl-D-phenylalanyl-L-prolyl-L-arginine-aldehyde sulfate] | 0.5 | 20 | irreversible conversion to the tricyclic compound ([3]; listed as N-methyl derivative, sulfate): no such conversion was detectable
